Source: ChEMBL document CHEMBL1201862, “PubChem BioAssay data set” (2004)
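Cultured in 96-well plates, cells were exposed to test compound for 48 hours across five concentrations. Abbreviation: GI50, concentration required for 50% inhibition of growth.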 Activity calls are given as the source filed them. Cut-off read from the data, not from the text of the source: active = GI50 up to about 1.1 µM and inactive = higher.

Legend:
Assay in all cases: DTP human tumour cell line panel, 48 h
HL-60 = tested on: HL-60
HOP-92 = tested on: HOP-92
K562 = tested on: K562
KM12 = tested on: KM12
NCI-H23 = tested on: NCI-H23
NCI-H522 = tested on: NCI-H522
OVCAR-3 = tested on: OVCAR-3
OVCAR-8 = tested on: OVCAR-8
RXF 393 = tested on: RXF 393
SF-295 = tested on: SF-295
SN12C = tested on: SN12C
SNB-19 = tested on: SNB-19
SNB-75 = tested on: SNB-75
SR = tested on: SR
LOX IMVI = tested on: LOX IMVI
MCF7 = tested on: MCF7
MDA-MB-231 = tested on: MDA-MB-231
NCI/ADR-RES = tested on: NCI/ADR-RES
SK-MEL-5 = tested on: SK-MEL-5

Measured: GI50

CCOC(=O)Cc1csc(Nc2ccc(OCC)cc2)n1
inactive: HL-60 > 100 µM | HOP-92 47.4 µM | K562 92.7 µM | KM12 > 100 µM | NCI-H23 50.7 µM | NCI-H522 > 100 µM | OVCAR-3 86.3 µM | OVCAR-8 > 100 µM | RXF 393 > 100 µM | SF-295 > 100 µM | SN12C > 100 µM | SNB-19 > 100 µM | SNB-75 40.4 µM | SR 73.8 µM

COc1ccc(-c2c3c(n(C4OC(COC(C)=O)C(OC(C)=O)C(OC(C)=O)C4OC(C)=O)c(=S)c2C#N)CCCC3)cc1 (stereo unspecified)
inactive: HL-60 62.5 µM | K562 65.6 µM | KM12 > 100 µM | LOX IMVI > 100 µM | MCF7 > 100 µM | MDA-MB-231 55.8 µM | NCI-H23 37.9 µM | NCI-H522 25.3 µM | NCI/ADR-RES 54.1 µM | OVCAR-3 19.6 µM | OVCAR-8 69 µM | RXF 393 33.7 µM | SF-295 > 100 µM | SK-MEL-5 34.4 µM | SN12C > 100 µM | SNB-19 24.7 µM | SNB-75 16.4 µM | SR > 100 µM

O=C(NCCS(=O)(=O)N1C(=O)C2CCCN2C(=O)[C@@H]1Cc1ccccc1)OCc1ccccc1 (stereo partly specified)
inactive: HL-60 24.2 µM | HOP-92 27.7 µM | K562 47.9 µM | KM12 44.2 µM | LOX IMVI 50.6 µM | NCI-H23 67.6 µM | NCI-H522 24.7 µM | OVCAR-3 33.5 µM | OVCAR-8 69.8 µM | RXF 393 38 µM | SF-295 50 µM | SK-MEL-5 47.4 µM | SN12C 52.8 µM | SNB-19 44.4 µM | SNB-75 33.3 µM | SR 57.1 µM

COC1CC(OS(=O)(=O)c2ccc(C)cc2)C(OC(=O)c2ccccc2)C(C)O1 (stereo unspecified)
inactive: HL-60 > 10 µM | HOP-92 99.1 µM | K562 > 10 µM | KM12 > 10 µM | LOX IMVI > 10 µM | NCI-H23 > 10 µM | NCI-H522 > 10 µM | OVCAR-3 > 10 µM | OVCAR-8 > 10 µM | RXF 393 88.5 µM | SF-295 > 100 µM | SK-MEL-5 > 10 µM | SN12C > 10 µM | SNB-19 > 10 µM | SNB-75 99.5 µM | SR > 10 µM

O=C(O)CSc1nnc(COc2ccc(Cl)cc2)n1-c1ccccc1
inactive: HL-60 > 100 µM | HOP-92 > 100 µM | K562 > 100 µM | KM12 > 100 µM | LOX IMVI > 100 µM | MCF7 > 100 µM | MDA-MB-231 > 100 µM | NCI-H23 > 100 µM | NCI-H522 > 100 µM | NCI/ADR-RES > 100 µM | OVCAR-3 > 100 µM | OVCAR-8 > 100 µM | RXF 393 > 100 µM | SF-295 > 100 µM | SN12C > 100 µM | SNB-19 > 100 µM | SNB-75 > 100 µM

CCCCCCCCCCCC(=O)OCCOCCOCCOCCOCCOC(=O)CCCCCCCCCCC
inactive: HL-60 37.6 µM | HOP-92 > 100 µM | K562 > 100 µM | KM12 > 100 µM | LOX IMVI > 100 µM | NCI-H23 > 100 µM | NCI-H522 > 100 µM | OVCAR-3 > 100 µM | OVCAR-8 > 100 µM | RXF 393 > 100 µM | SF-295 > 100 µM | SK-MEL-5 > 100 µM | SN12C > 100 µM | SNB-19 > 100 µM | SNB-75 > 100 µM | SR > 100 µM

Cc1ccc(/C=c2\cc3oc(=O)c4cccc(c4-3)c2=O)cc1
inactive: HL-60 39.1 µM | HOP-92 > 100 µM | K562 33.3 µM | LOX IMVI 61.4 µM | MCF7 > 100 µM | MDA-MB-231 > 100 µM | NCI-H23 > 100 µM | NCI-H522 38.1 µM | NCI/ADR-RES > 100 µM | OVCAR-3 72.1 µM | OVCAR-8 97.7 µM | SF-295 > 100 µM | SN12C > 100 µM | SNB-19 > 100 µM | SNB-75 > 100 µM | SR 34.1 µM

CNS(=O)(=O)NNS(=O)(=O)c1ccc(Cl)cc1
inactive: HL-60 > 100 µM | HOP-92 > 100 µM | K562 > 100 µM | KM12 > 100 µM | NCI-H23 > 100 µM | NCI-H522 > 100 µM | OVCAR-3 > 100 µM | OVCAR-8 > 100 µM | RXF 393 > 100 µM | SF-295 > 100 µM | SK-MEL-5 > 100 µM | SN12C > 100 µM | SNB-19 > 100 µM | SR > 100 µM

N#CCc1nnc(N)o1
inactive: HL-60 > 100 µM | HOP-92 > 100 µM | K562 > 100 µM | KM12 > 100 µM | LOX IMVI > 100 µM | NCI-H23 > 100 µM | NCI-H522 > 100 µM | OVCAR-3 > 100 µM | SF-295 > 100 µM | SN12C > 100 µM | SNB-19 > 100 µM | SNB-75 > 100 µM | SR > 100 µM

O=C(Nc1cc(C(F)(F)F)ccc1Cl)C(=O)C(C(=O)c1ccc2ccccc2c1)C1OC(=O)c2ccccc21 (stereo unspecified)
inactive: HL-60 11 µM | HOP-92 11.8 µM | K562 4.66 µM | KM12 13.3 µM | LOX IMVI 6.32 µM | NCI-H23 5.26 µM | NCI-H522 4.29 µM | OVCAR-3 13.9 µM | OVCAR-8 5.09 µM | RXF 393 1.2 µM | SF-295 4.81 µM | SK-MEL-5 7.69 µM | SN12C 13 µM | SNB-19 6.21 µM | SNB-75 7.41 µM | SR 2.62 µM

O=C(COc1ccc(Cl)cc1)N1N=C(c2ccc([N+](=O)[O-])o2)CC1(O)c1ccccc1 (stereo unspecified)
inactive: HL-60 1.77 µM | HOP-92 20.2 µM | K562 3.72 µM | KM12 6.58 µM | LOX IMVI 10.8 µM | NCI-H23 2.03 µM | NCI-H522 15.5 µM | OVCAR-3 3.77 µM | OVCAR-8 5.62 µM | SF-295 10.7 µM | SN12C 4.44 µM | SNB-19 11.9 µM | SNB-75 > 10 µM | SR 2.59 µM

NNC(=S)N/N=C(/C(=O)Nc1cc(Cl)ccc1Cl)C1C(=O)Nc2ccccc2[S+]1[O-] (stereo unspecified)
inactive: HL-60 > 100 µM | HOP-92 > 100 µM | K562 > 100 µM | KM12 > 100 µM | LOX IMVI > 100 µM | NCI-H23 > 100 µM | NCI-H522 68.9 µM | OVCAR-3 > 100 µM | OVCAR-8 > 100 µM | RXF 393 > 100 µM | SF-295 > 100 µM | SK-MEL-5 > 100 µM | SN12C > 100 µM | SNB-19 > 100 µM | SNB-75 > 100 µM | SR 94.2 µM

CCc1cccc(CC)c1NC(=O)CC1SC(N)=NC1=O (stereo unspecified)
inactive: HL-60 > 100 µM | HOP-92 > 100 µM | K562 > 100 µM | KM12 > 100 µM | LOX IMVI > 100 µM | NCI-H23 > 100 µM | NCI-H522 > 100 µM | OVCAR-3 > 100 µM | OVCAR-8 > 100 µM | RXF 393 > 100 µM | SF-295 > 100 µM | SK-MEL-5 > 100 µM | SN12C > 100 µM | SNB-19 > 100 µM | SNB-75 > 100 µM | SR 97.5 µM

CN(C)c1c([O-])c(=[N+](C)C)c1=O
inactive: HL-60 > 100 µM | HOP-92 > 100 µM | K562 > 100 µM | KM12 > 100 µM | LOX IMVI > 100 µM | NCI-H23 > 100 µM | NCI-H522 > 100 µM | OVCAR-3 > 100 µM | OVCAR-8 > 100 µM | RXF 393 > 100 µM | SF-295 > 100 µM | SN12C > 100 µM | SNB-19 > 100 µM | SNB-75 > 100 µM | SR > 100 µM

C[C@H]1CCC2C(CN3CCCCC3)C(=O)OC2[C@]2(C)C(=O)CC(N3CCCCC3)C12O (stereo partly specified)
inactive: HL-60 1.56 µM | HOP-92 2.68 µM | K562 2.4 µM | KM12 3.09 µM | NCI-H23 4.3 µM | NCI-H522 1.38 µM | OVCAR-3 4.48 µM | OVCAR-8 1.79 µM | RXF 393 1.86 µM | SF-295 9.1 µM | SK-MEL-5 4.73 µM | SN12C 3.75 µM | SNB-19 20 µM | SNB-75 11.3 µM | SR 2.49 µM

O=C1CSC(c2c[nH]c3ccccc23)N1c1cccc([N+](=O)[O-])c1 (stereo unspecified)
inactive: HL-60 > 100 µM | HOP-92 32.6 µM | K562 76.2 µM | KM12 24.4 µM | LOX IMVI 93.5 µM | MCF7 90.8 µM | MDA-MB-231 56.2 µM | NCI-H23 > 100 µM | NCI-H522 95.3 µM | OVCAR-3 > 100 µM | OVCAR-8 > 100 µM | RXF 393 > 100 µM | SF-295 66.7 µM | SK-MEL-5 84.3 µM | SN12C > 100 µM | SNB-19 > 100 µM | SNB-75 43.7 µM | SR > 100 µM

CC1(C)CCc2cc3c(cc2O1)OCC1c2cc4c(cc2OC31)OCO4 (stereo unspecified)
inactive: HL-60 35.5 µM | HOP-92 > 100 µM | K562 71.1 µM | KM12 > 100 µM | LOX IMVI > 100 µM | NCI-H23 > 100 µM | NCI-H522 > 100 µM | OVCAR-3 > 100 µM | OVCAR-8 > 100 µM | RXF 393 > 100 µM | SF-295 > 100 µM | SK-MEL-5 39.9 µM | SN12C > 100 µM | SNB-19 > 100 µM | SNB-75 > 100 µM | SR > 100 µM
